Assay results taken from patent publication US12344620B2, “BRD4 inhibitor compound in solid form and preparation method therefor and use thereof” (CSPC ZHONGQI PHARMACEUTICAL TECHNOLOGY (SHIJIAZHUANG) CO., …, priority 2019, dated 2025).

What was measured:
[1] = test system: Human prostatic cancer PC-3 cells; experiment: In vivo pharmacodynamics, PC-3 subcutaneous xenograft tumor model; conditions: 50 mg/kg PO BID x 21 days
Experimental: The formulation method of the test substance was the same as in Table 6, and the animal grouping and the dosage regimen were the same as in Table 7.
• Species: mouse • Strain: BALB/c nude mouse • Week-age and weight: 6-8 weeks of age, 18-22 grams of body weight • Sex: male • Supplier: Shanghai Sippr-BK laboratory animal Co. Ltd.
Human prostatic cancer PC-3 cells were cultured in monolayer in vitro, and the culture conditions were F-12K culture medium (supplier: Gibco; article number: 21127-022; manufacturing batch number: 1868870) with 10% fetal bovine serum, 100 U/mL penicillin and 100 μg/mL streptomycin. The culture was performed at 37° C. in 5% CO2. Conventional digestion treatment with pancreatin-EDTA for passage was carried out twice a week. When the cells were in the exponential growth phase, the cells were harvested, counted, and inoculated.
0.1 mL of 10×10^6 PC-3 cells were subcutaneously inoculated into the right-back of each nude mouse. The grouping and administration was started when the average tumor volume reached 100-150 mm^3.
3.3 Tumor measurement, experiment indices, and statistical analysis were the same as MDA-MB-231 model.

[2] = test system: Mouse colon cancer MC38 cells; experiment: In vivo anti-tumor effect, MC38 mouse colon cancer transplantation tumor model; conditions: 15, 25 and 50 mg/kg PO BID x 20 days
Experimental: • Species: mouse • Strain: C57BL6 mouse • Week-age and weight: 6-7 weeks of age, 16-20 grams of body weight • Sex: Female • Supplier: Shanghai SLAC Laboratory Animal Co., Ltd.
Mouse colon cancer MC38 cells (OBiO Technology (Shanghai) Corp., Ltd.) were cultured in monolayer in vitro, and the culture conditions were DMEM culture medium (Gibco; article number: 12100) with 10% fetal bovine serum at 37° C. in 5% CO2 in an incubator. Conventional digestion treatment with 0.25% pancreatin-EDTA for passage was carried out. When the cells were in the exponential growth phase and the density was 80%-90%, the cells were harvested, counted, and inoculated. […]
Tumor diameter was measured twice a week with vernier calipers. […]
The tumor inhibition effect of the compound was evaluated by TGI (%) or relative tumor proliferation rate T/C (%). […] The relative tumor volume (RTV) was calculated according to the results of the tumor measurement. The calculation equation was RTV=Vt/V0, where V0 was the average tumor volume measured at the grouping and administration (i.e. D0), and Vt was the average tumor volume at the time of a certain measurement. […]
Statistical analysis was performed using SPSS software based on the tumor volume and the tumor weight at the end of the experiment. The comparison between two groups was analyzed by t-test, and the comparison between three or more groups was analyzed by one-way ANOVA.

[3] = target: hERG potassium ion channel (Homo sapiens (Human), UniProt Q12809); experiment: hERG potassium channel current, automatic patch-clamp QPatch, CHO-hERG cells; format: cell-based; conditions: highest test concentration 40 μM
hERG potassium ion channel, sequence (Q12809 whole entry): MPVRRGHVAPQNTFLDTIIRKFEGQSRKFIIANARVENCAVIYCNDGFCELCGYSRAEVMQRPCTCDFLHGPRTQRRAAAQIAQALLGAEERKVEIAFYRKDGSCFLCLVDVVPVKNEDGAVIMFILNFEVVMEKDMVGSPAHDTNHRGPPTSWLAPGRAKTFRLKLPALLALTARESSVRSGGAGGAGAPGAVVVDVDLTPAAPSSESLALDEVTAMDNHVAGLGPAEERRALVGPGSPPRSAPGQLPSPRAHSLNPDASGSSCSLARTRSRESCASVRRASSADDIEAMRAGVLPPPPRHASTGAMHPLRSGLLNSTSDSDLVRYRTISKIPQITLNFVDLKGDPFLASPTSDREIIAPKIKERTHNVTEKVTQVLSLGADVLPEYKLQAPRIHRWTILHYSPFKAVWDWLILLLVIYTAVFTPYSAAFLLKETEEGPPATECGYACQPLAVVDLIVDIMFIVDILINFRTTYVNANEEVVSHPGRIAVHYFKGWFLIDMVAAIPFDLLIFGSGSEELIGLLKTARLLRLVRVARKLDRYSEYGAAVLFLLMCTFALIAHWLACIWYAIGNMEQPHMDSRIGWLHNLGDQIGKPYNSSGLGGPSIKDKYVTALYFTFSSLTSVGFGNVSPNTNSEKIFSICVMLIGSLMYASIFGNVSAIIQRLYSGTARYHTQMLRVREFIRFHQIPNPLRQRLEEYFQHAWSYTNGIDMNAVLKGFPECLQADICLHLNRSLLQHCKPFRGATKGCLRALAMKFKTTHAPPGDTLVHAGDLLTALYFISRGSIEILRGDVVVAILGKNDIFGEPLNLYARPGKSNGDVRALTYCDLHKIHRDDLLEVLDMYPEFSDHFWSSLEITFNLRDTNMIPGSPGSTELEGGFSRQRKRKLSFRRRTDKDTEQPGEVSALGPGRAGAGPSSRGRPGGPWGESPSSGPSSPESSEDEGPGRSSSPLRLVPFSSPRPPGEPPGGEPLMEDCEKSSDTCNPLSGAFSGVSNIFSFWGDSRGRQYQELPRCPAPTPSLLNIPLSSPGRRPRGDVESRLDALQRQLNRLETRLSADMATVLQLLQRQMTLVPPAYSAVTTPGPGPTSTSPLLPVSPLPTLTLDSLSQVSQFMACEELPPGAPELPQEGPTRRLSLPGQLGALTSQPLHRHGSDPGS
Experimental: The effect of the compound of formula (I) on the hERG potassium channel current was investigated by adopting CHO (Chinese Hamster ovary) cell stably expressing the hERG potassium ion channel and using the fully automatic patch-clamp QPatch technology.
CHO-hERG cells were cultured in a 175 cm^2 culture flask. After the cell density increased to 60-80%, the culture medium was removed, the cells were washed once with 7 mL PBS, and then 3 mL Detachin was added for digestion.
After the digestion was complete, 7 mL of culture medium was added for neutralization, and then the mixture was centrifuged. The supernatant was removed, and then 5 mL of culture medium was added for resuspension to ensure that the cell density was 2-5×10^6/mL. […]
The single-cell high-impedance sealing and the whole-cell mode formation process were all automatically completed by the Qpatch instrument. […] The data were recorded for 2 minutes, then extracellular fluid was given, and then the data were recorded for 5 minutes. […] The experimental data were analyzed by XLFit software.

Structure (SMILES): Cc1sc2c(c1C)C(c1ccc(Cl)cc1)=N[C@@H](CC(=O)Nc1ccc3c(c1)COC3=O)c1nnc(C)n1-2 [Compound of formula (I)]
- tolerability [1]: well tolerated
- tolerance [2]: good tolerance
- IC50 [3]: > 40 µM
